The values below come from patent publication EP1891955A1, “Use of 1,2,3-substituted indolizine derivatives, inhibitors of FGFs, for the preparation of a medicament intended for the treatment of degenerative joint diseases” (Sanofi-Aventis, priority 2006, dated 2008).

SMILES strings stand for the structures. Marks after values point to notes of the source that are not given here.

For this series, the system named is STR/1N mice. The series can be described thus: Knee joint damage in STR/1N mice developing osteoarthritis spontaneously (semi-quantitative histopathological score). The format is in vivo. The note with it: male STR/1N mice, 6-week treatment. Here is the method: The effect of an FGF-antaqonist on the degree of knee joint damage in STR/1N mice, which develop osteoarthritis spontaneously
The experiment was performed according to the regulations of the German Animal Protection Law. Fifty 9-week old male STR/1N mice (strain bred and maintained at sanofi-aventis, Dept. of Laboratory Animal Safety and Welfare, D-65926 Frankfurt/Main, Germany) were randomized to 2 experimental groups (n=25/group). The animals were housed individually in standard mouse cages (room temperature 20 - 22°C; relative humidity 55-75%; 12 hours light/dark cycle) with free access to the powdered mouse standard food (Sniff R/M-H, Soest, Germany) and tap water. To achieve sustained drug exposure, the sodium 2-amino-5-[(1-methoxy-2-methylindolizin-3-yl)carbonyl]benzoic acid monohydrate was blended with the standard food at concentrations of 300 ppm (0.3 g/kg food) and administered to one experimental group of 25 mice ad libitum. The control group of 25 mice received unsupplemented standard food. Following the 6-week treatment period the animals were sacrificed by CO2 inhalation, their left knee joints were removed and decalcified for 3 days with formic acid (decalcifier, Shandon, Frankfurt/M., Germany), fixed in formalin and embedded in paraffin. Four sequential coronal sections of the complete knee joints (7 µm, 0.1 mm apart), stained with Hematoxyline-Eosine and Saffranin-O were evaluated by a blinded observer for the degree of histopathological joint alterations by using a semi-quantitative score as described in Table 1. Table 1: Semiquantitative Histopathological Score of Osteoarthritic Joint Damage in STR/1N Mice
The osteoarthritis joint damage was assessed by a semi-quantitative histopathological score. The STR/1N mice developed moderate osteoarthritis in the medial tibial plateau of the knee joint.

In the case of `COc1c(C)c(C(=O)c2ccc(N)c(C(=O)O)c2)n2ccccc12.O.[Na]` [sodium 2-amino-5-[(1-methoxy-2-methylindolizin-3-yl)carbonyl]benzoic acid monohydrate], for the setting “300 ppm (0.3 g/kg food) in food ad libitum, left knee joint, maximal total joint score = 128, p = 0.0118 Mann Whitney Test vs control 34.3 (3.8)”, the “Histopathological Score Mean (SEM)” value was 23.5 (3.7)*. For the same compound, the tolerability entry (300 ppm in food) is on record as “well tolerated”. Besides, the “reduction of the degree of histopathological joint damage” value (300 ppm in food, versus non-treated control) was 32%.
